Measurements as given in US12077501B2, “Compounds and compositions for intracellular delivery of agents” (ModernaTX, Inc., priority 2017, dated 2024).

Legend:
[1] = Particle size and polydispersity index of nanoparticle compositions (Zetasizer Nano ZS); type: physicochemical; conditions: Formulated with lipid:Chol:DOPE:PEG 1 40:38.5:20:1.5
Procedure: A Zetasizer Nano ZS (Malvem Instruments Ltd, Malvem, Worcestershire, UK) can be used to determine the particle size, the polydispersity index (PDI) and the zeta potential of the nanoparticle compositions in 1×PBS in determining particle size and 15 mM PBS in determining zeta potential.

[2] = Encapsulation efficiency of RNA (QUANT-IT RIBOGREEN RNA assay); type: physicochemical; conditions: Formulated with lipid:Chol:DOPE:PEG 1 40:38.5:20:1.5
Procedure, shortened: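 RiboGreen fluorescence (ex about 480, em about 520 nm) compares nanoparticle samples left intact versus disrupted with 2% Triton X-100 (15 min, 37° C). Samples are first brought to roughly 5 μg/mL in 10 mM Tris-HCl, 1 mM EDTA, pH 7.5; percent free RNA equals the blank-corrected intact/disrupted signal ratio.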

[3] = system: hEPO expression; experiment: hEPO (miR126 + miR142) mRNA expression, Tables 8b-8e; type: in vivo
[4] = Lipid clearance: % dose remaining, Tables 7c and 8b-8e (species not given); type: in vivo
Source text: In contrast, hEPO expression in rats induced by administration of a nanoparticle composition including a compound according to one of formulae (I), (Ia1)-(Ia6), (Ib), (II), (IIa), (III), and (IIIa) was substantially […] than that measured for MC3. […] Tables 7c and 7d show additional protein expressions and clearance data from compositions with various compounds disclosed herein as compared to with MC3. Tables 7e, 7f and 7g show hEPO expression data in CD-1 mice at a dose of 0.5 mpk.

Structure (SMILES)	PDI ([1]; Table 1d)	Size (nm) ([1]; Table 1d)	EE (%) ([2]; Table 1d)	AUC ([3]; Table 8b) [pg·h/mL]	% Dose Remaining (liver, 24 h) ([4]; Table 8b) [%]	PDI ([1]; Table 1e)	Size (nm) ([1]; Table 1e)	EE (%) ([2]; Table 1e)	AUC ([3]; Table 8c) [pg·h/mL]	% Dose Remaining (liver, 24 h) ([4]; Table 8c) [%]	PDI ([1]; Table 1f)	Size (nm) ([1]; Table 1f)	EE (%) ([2]; Table 1f)	AUC ([3]; Table 8d) [pg·h/mL]	% Dose Remaining (liver, 24 h) ([4]; Table 8d) [%]
CCCCCCCCCN(CCCCCCCCC)CCCCCCCCN(CCCCCCCCC)CCN(CCCCCCCCC)CCCCCCCCC [Compound 160, N^1-(2-(dinonylamino)ethyl)-N^1,N^8,N^8-trinonyloctane-1,8-diamine]	0.25	115.5	97.3	219000	60.54										
CCCCCCCCCCCCCCN(CCCOC(=O)CCCCCCCCC)CC(=O)N(C)CCN(C)C(=O)CN(CCCCCCCCC)CCN(CCCCCCCCC)CCCCCCCCC [Compound 158, 7,10-dimethyl-13,16-dinonyl-6,11-dioxo-4-tetradecyl-4,7,10,13,16-pentaazapentacosyl Decanoate]	0.20	124.2	97.8	1.03e+07	0.30										
CCCCCCCCCN(CCCCCCCCC)CCN(CCCCCCCCC)CCOC(=O)CCCCCCCC [Compound 168, 2-((2-(Dinonylamino)ethyl)(nonyl)amino)ethyl Nonanoate]						0.17	60.0	97.3	0	2.74					
CCCCCCCCCOC(=O)CCCCCCCN(CCCCCCCC(=O)OC(CCCCCCCC)CCCCCCCC)CCCCC(=O)N(CC)CCN(CC)C(=O)CCCCN(CCCCCCCC(=O)OCCCCCCCCC)CCCCCCCC(=O)OC(CCCCCCCC)CCCCCCCC [Compound 181, Di(heptadecan-9-yl) 15,18-diethyl-9,24-bis(8-(nonyloxy)-8-oxooctyl)-14,19-dioxo-9,15,18,24-tetraazadotriacontanedioate]											0.25	129.9	97.7	1.69e+08	2.51
CCCCCCCCCN(CCCCCCCCC)CCN(CCCCCCCCC)CC(=O)NCCNC(=O)CN(CCCCCCCCC)CCCCCCCCC [Compound 153, 2-(dinonylamino)-N-(2-(2-((2-(dinonylamino)ethyl)(nonyl)amino)acetamido)ethyl)acetamide]	0.23	116.7	97.2	5.62e+07	84.71										
CCCCC/C=C\CCN(CC/C=C\CCCCC)CCN(CC/C=C\CCCCC)CC(=O)N(C)CCN(C)C(=O)CN(CCCCCCCCC)CCCCCCCCC [Compound 154, 2-((2-(di((Z)-non-3-en-1-yl)amino)ethyl)((Z)-non-3-en-1-yl)amino)-N-(2-(2-(dinonylamino)-N-methylacetamido)ethyl)-N-methylacetamide]	0.18	103.3	97.8	1.37e+08	78.44										
CCCCCCCCCCN(CCCCCCCCCC)CCCCC(=O)N1CCN(C(=O)CCCCN(CCCCCCCCCC)CCCCCCCCCC)CC1 [Compound 164, 1,1′-(Piperazine-1,4-diyl)bis(5-(didecylamino)pentan-1-one)]						0.15	74.4	97.7	4.09e+06	40.18					
CCCCCCCCCCCCCCNC(=O)CN(CCCCCCCCC)CCN(CCCCCCCCC)CCCCCCCCC [Compound 163, 2-((2-(dinonylamino)ethyl)(nonyl)amino)-N-tetradecylacetamide]						0.23	88.6	98.1	1.01e+07	65.12					
CCCCCCCCCN(CCCCCCCCC)CCN(CCCCCCCCC)CC(=O)NCCCCOC(=O)CCCC [Compound 165, 4-(2-((2-(dinonylamino)ethyl)(nonyl)amino)acetamido)butyl pentanoate]						0.22	107.8	97.0	9.38e+07	0.13					
CCCCCCCCCN(CCCCCCCCC)CCCOCCCN(CCCCCCCCC)CCN(CCCCCCCCC)CCCCCCCCC [Compound 161, N^1-(3-(3-(dinonylamino)propoxy)propyl)-N^1,N^2,N^2-trinonylethane-1,2-diamine]						0.17	61.8	97.8	128000	113.64					
CCCCCCCCCCCCCCN(C/C=C\COC(=O)CCCCCCCC)CC(=O)N1CCN(C(=O)CN(CCCCCCCCC)CCN(CCCCCCCCC)CCCCCCCCC)CC1 [Compound 141, (Z)-4-((2-(4-(N-(2-(dinonylamino)ethyl)-N-nonylglycyl)piperazin-1-yl)-2-oxoethyl)(tetradecyl)amino)but-2-en-1-yl nonanoate]	0.15	131.5	97.6	2.7e+07	1.41										
CCCCCCCCCCCCCCOC(=O)CN(CCCCCCCCC)CCN(CCCCCCCCC)CCCCCCCCC [Compound 167, Tetradecyl N-(2-(dinonylamino)ethyl)-N-nonylglycinate]						0.22	64.5	97.6	0	89.60					
CCCCCCCCCN(CCCCCCCCC)CCN(CCCCCCCCC)CC(=O)OC(C)CC(C)OC(=O)CN(CCCCCCCCC)CCCCCCCCC (stereo not shown) [Compound 189, 4-((N-(2-(Dinonylamino)ethyl)-N-nonylglycyl)oxy)pentan-2-yl dinonylglycinate]											0.16	70.1	98.3	1.15e+07	91.63
CCCCCCCCCOC(=O)CCCCCCCN(CCCCCCCC(=O)OC(CCCCCCCC)CCCCCCCC)CCCCC(=O)N1CCN(C(=O)CCCCN(CCCCCCCC(=O)OCCCCCCCCC)CCCCCCCC(=O)OC(CCCCCCCC)CCCCCCCC)CC1 [Compound 184, Di(heptadecan-9-yl) 8,8′-((piperazine-1,4-diylbis(5-oxopentane-5,1-diyl))bis((8-(nonyloxy)-8-oxooctyl)azanediyl))dioctanoate]											Multimodal	107.6	99.1	4.21e+08	2.23
CCCCCCCCCOC(=O)CCCCCCCN(CCCCCCCC(=O)OC(CCCCCCCC)CCCCCCCC)CCCCC(=O)N(C)CCCN(C)C(=O)CCCCN(CCCCCCCC(=O)OCCCCCCCCC)CCCCCCCC(=O)OC(CCCCCCCC)CCCCCCCC [Compound 182, Di(heptadecan-9-yl) 15,19-dimethyl-9,25-bis(8-(nonyloxy)-8-oxooctyl)-14,20-dioxo-9,15,19,25-tetraazatritriacontanedioate]											0.28	97.7	98.8	6.06e+07	1.64
CCCCCCCCCOC(=O)CCCCCCCN(CCCCCCCC(=O)OC(CCCCCCCC)CCCCCCCC)CCCCC(=O)OC(C)CC(C)OC(=O)CCCCN(CCCCCCCC(=O)OCCCCCCCCC)CCCCCCCC(=O)OC(CCCCCCCC)CCCCCCCC (stereo not shown) [Compound 187, Di(heptadecan-9-yl) 8,8′-(26,28-dimethyl-11,24,30,43-tetraoxo-10,25,29,44-tetraoxa-19,35-diazatripentacontane-19,35-diyl)dioctanoate]											0.20	126.0	98.5	5.22e+07	42.86
CCCCCCCCCN(CCCCCCCCC)CCN(CCCCCCCCC)CC(=O)N(CC)CCN(CC)C(=O)CN(CCCCCCCCC)CCCCCCCCC [Compound 157, 2-(dinonylamino)-N-(2-(2-((2-(dinonylamino)ethyl)(nonyl)amino)-N-ethylacetamido)ethyl)-N-ethylacetamide]	0.11	89.8	98.3	2.08e+08	42.48										
CCCCCCCCCOC(=O)CN(CCCCCCCCC)CCN(CCCCCCCCC)CCCCCCCCC [Compound 166, Nonyl N-(2-(dinonylamino)ethyl)-N-nonylglycinate]						0.24	59.4	97.1	0	75.26					
CCCCCCCCCOC(=O)CCCCCCCN(CCCCCCCC(=O)OC(CCCCCCCC)CCCCCCCC)CCCCC(=O)OC(C)C(C)OC(=O)CCCCN(CCCCCCCC(=O)OCCCCCCCCC)CCCCCCCC(=O)OC(CCCCCCCC)CCCCCCCC (stereo not shown) [Compound 186, Di(heptadecan-9-yl) 8,8′-(26,27-dimethyl-11,24,29,42-tetraoxo-10,25,28,43-tetraoxa-19,34-diazadopentacontane-19,34-diyl)dioctanoate]											0.21	111.5	98.2	2.19e+07	49.08
CCCCCCCCCCNC(=O)CN(CCCCCCCCC)CCN(CCCCCCCCC)CCCCCCCCC [Compound 162, N-decyl-2-((2-(dinonylamino)ethyl)(nonyl)amino)acetamide]						0.23	73.1	98.4	2.3e+07	63.12					
